According to patent US11377425B1, “Small molecule modulators of IL-17” (LEO Pharma A/S, priority 2018, dated 2022):

biological target: T1, human IL-17AA (Homo sapiens, UniProt Q16552); experiment: IL-8 release assay in human epithelial keratinocytes adult (HEKa); format: cell-based; conditions: HEKa cells, 3 ng/mL HEK-human IL-17AA + 10 ng/mL human TNFalpha; read-out: Rel EC50 IL-8 release assay
T1 construct: host or cells: HEK (human embryonic kidney) cells
T1 sequence (Q16552 24-155): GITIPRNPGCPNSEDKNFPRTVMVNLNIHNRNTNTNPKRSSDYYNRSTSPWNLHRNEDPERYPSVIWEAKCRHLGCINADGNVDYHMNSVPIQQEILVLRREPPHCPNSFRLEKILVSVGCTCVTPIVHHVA
Summary of the method: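 IL-8 release, quantified by HTRF and normalized to controls, reports IL-17 signaling in HEKa cells treated with compound plus final 3 ng/mL IL-17AA (HEK-derived) and 10 ng/mL TNF-alpha for 68-72 h; TNF-alpha-only wells set 100% inhibition. Four-parameter logistic fits (r^2>0.9) give relative IC50 and Emax; PrestoBlue flags cytotoxicity.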

SMILES | EC50
CCn1nccc1C(=O)N[C@H](C(=O)Nc1ccc(-c2c(C)n[nH]c2C)cc1)[C@H]1CCCC(F)(F)C1 [Example 22, N-[(1S)-1-[(1S)-3,3-difluorocyclohexyl]-2-[4-(3,5-dimethyl-1H-pyrazol-4-yl)anilino]-2-oxo-ethyl]-2-ethyl-pyrazole-3-carboxamide] | 100 to 1000 nM
Cc1n[nH]c(C)c1-c1ccc(NC(=O)[C@H](Cc2ccccc2Cl)NC(=O)c2ccnn2C(C)C)cc1 [Example 24] | 100 to 1000 nM
Cc1n[nH]c(C)c1-c1ccc(NC(=O)[C@H](Cc2ccccc2Cl)NC(=O)c2ccnn2C)cc1 [Example 25] | > 1000 nM
Cc1n[nH]c(C)c1-c1ccc(NC(=O)[C@@H](NC(=O)c2ccnn2C)[C@H]2CCOc3ccccc32)cc1 [Example 34, N-[(1S)-1-[(4S)-chroman-4-yl]-2-[4-(3,5-dimethyl-1H-pyrazol-4-yl)anilino]-2-oxo-ethyl]-2-methyl-pyrazole-3-carboxamide] | 100 to 1000 nM
Cc1n[nH]c(C)c1-c1ccc(NC(=O)[C@H](Cc2ccccc2)NC(=O)c2ccnn2C)cc1 [Example 44, N-[(1S)-1-benzyl-2[4-(3,5-dimethyl-1H-pyrazol-4-yl)anilino]-2-oxo-ethyl]-2-methyl-pyrazole-3-carboxamide] | > 1000 nM
Cc1n[nH]c(C)c1-c1ccc(NC(=O)[C@H](Cc2ccc(O)cc2)NC(=O)c2ccnn2C)cc1 [Example 45, N-[(1S)-2-[4-(3,5-dimethyl-1H-pyrazol-4-yl)anilino]-1-[(4-hydroxyphenyl)methyl]-2-oxo-ethyl]-2-methyl-pyrazole-3-carboxamide] | > 1000 nM
Cc1n[nH]c(C)c1-c1ccc(NC(=O)[C@@H](NC(=O)c2ccnn2C(C)C)[C@H]2CCOc3ccccc32)cc1 [Example 47, N-[(1S)-1-[(4S)-chroman-4-yl]-2-[4-(3,5-dimethyl-1H-pyrazo1-4-yl)anilino]-2-oxo-ethyl]-2-isopropyl-pyrazole-3-carboxamide] | < 100 nM
Cc1n[nH]c(C)c1-c1ccc(NC(=O)[C@@H](NC(=O)c2cnc(C)n2C)C2CCCCC2)cc1 [Example 48, N-[(1S)-1-cyclohexyl-2-[4-(3,5-dimethyl-1H-pyrazol-4-yl)anilino]-2-oxo-ethyl]-2,3-dimethyl-imidazole-4-carboxamide] | > 1000 nM
Cc1n[nH]c(C)c1-c1ccc(NC(=O)[C@@H](NC(=O)c2c(C)ncn2C)C2CCCCC2)cc1 [Example 50, N-[(1S)-1-cyclohexyl-2-[4-(3,5-dimethyl-1H-pyrazol-4-yl)anilino]-2-oxo-ethyl]-3,5-dimethyl-imidazole-4-carboxamide] | > 1000 nM
Cc1ncsc1CC(=O)N[C@H](C(=O)Nc1ccc(-c2c(C)n[nH]c2C)cc1)C1CCCCC1 [Example 51, (2S)-2-cyclohexyl-N-[4-(3,5-dimethyl-1H-pyrazol-4-yl)phenyl]-2-[[2-(4-methylthiazol-5-yl)acetyl]amino]acetamide] | > 1000 nM
Cc1ncc(CC(=O)N[C@H](C(=O)Nc2ccc(-c3c(C)n[nH]c3C)cc2)C2CCCCC2)s1 [Example 52, (2S)-2-cyclohexyl-N-[4-(3,5-dimethyl-1H-pyrazol-4-yl)phenyl]-2-[[2-(2-methylthiazol-5-yl)acetyl]amino]acetamide] | > 1000 nM
Cc1n[nH]c(C)c1-c1ccc(NC(=O)[C@@H](NC(=O)Cn2ccnc2C)C2CCCCC2)cc1 [Example 53, (2S)-2-cyclohexyl-N-[4-(3,5-dimethyl-1H-pyrazol-4-yl)phenyl]-2-[[2-(2-methylimidazol-1-yl)acetyl]amino]acetamide] | > 1000 nM
Cc1n[nH]c(C)c1-c1ccc(NC(=O)[C@@H](NC(=O)Cc2ccc(N(C)C)cc2)C2CCCCC2)cc1 [Example 54, (2S)-2-cyclohexyl-2-[[2-(4-dimethylaminophenyl)acetyl]amino]-N-[4-(3,5-dimethyl-1H-pyrazol-4-yl)phenyl]acetamide] | 100 to 1000 nM
Cc1n[nH]c(C)c1-c1ccc(NC(=O)[C@@H](NC(=O)C(F)(F)c2ccccc2)C2CCCCC2)cc1 [Example 55, N-[(1S)-1-cyclohexyl-2-[4-(3,5-dimethyl-1H-pyrazol-4-yl)anilino]-2-oxo-ethyl]-2,2-difluoro-2-phenyl-acetamide] | 100 to 1000 nM
CCC(F)(F)C(=O)N[C@H](C(=O)Nc1ccc(-c2c(C)n[nH]c2C)cc1)C1CCCCC1 [Example 56, N-[(1S)-1-cyclohexyl-2-[4-(3,5-dimethyl-1H-pyrazol-4-yl)anilino]-2-oxo-ethyl]-2,2-difluoro-butanamide] | 100 to 1000 nM
Cc1n[nH]c(C)c1-c1ccc(NC(=O)[C@@H](NC(=O)C2(C)CC2)C2CCCCC2)cc1 [Example 57, N-[(1S)-1-cyclohexyl-2-[4-(3,5-dimethyl-1H-pyrazol-4-yl)anilino]-2-oxo-ethyl]-1-methyl-cyclopropanecarboxamide] | 100 to 1000 nM
Cc1nocc1C(=O)N[C@H](C(=O)Nc1ccc(-c2c(C)n[nH]c2C)cc1)C1CCCCC1 [Example 58, N-[(1S)-1-cyclohexyl-2-[4-(3,5-dimethyl-1H-pyrazol-4-yl)anilino]-2-oxo-ethyl]-3-methyl-isoxazole-4-carboxamide] | 100 to 1000 nM
Cc1nocc1C(=O)N[C@H](C(=O)Nc1ccc(-c2c(C)n[nH]c2C)cc1)C1CCCCCC1 [Example 59, N-[(1S)-1-cycloheptyl-2-[4-(3,5-dimethyl-1H pyrazol-4-yl)anilino]-2-oxo-ethyl]-3-methyl-isoxazole-4-carboxamide] | < 100 nM
Cc1n[nH]c(C)c1-c1ccc(NC(=O)[C@@H](NC(=O)c2cnnn2C)C2CCCCC2)cc1 [Example 60, N-[(1S)-1-cyclohexyl-2-[4-(3,5-dimethyl-1H-pyrazol-4-yl)anilino]-2-oxo-ethyl]-3-methyl-triazole-4-carboxamide] | 100 to 1000 nM
Cc1n[nH]c(C)c1-c1ccc(NC(=O)[C@@H](NC(=O)c2cnnn2-c2ccccc2)C2CCCCC2)cc1 [Example 61, N-[(1S)-1-cyclohexyl-2-[4-(3,5-dimethyl-1H-pyrazol-4-yl)anilino]-2-oxo-ethyl]-3-phenyl-triazole-4-carboxamide] | 100 to 1000 nM

The next lines start with the values.

EC50 | SMILES
100 to 1000 nM | Cc1n[nH]c(C)c1-c1ccc(NC(=O)[C@@H](NC(=O)c2ccnn2C)[C@H]2CCCC(F)(F)C2)cc1 [Example 19, N-[(1S)-1-[(1S)-3,3-difluorocyclohexyl]-2-[4-(3,5-dimethyl-1H-pyrazol-4-yl)anilino]-2-oxo-ethyl]-2-methyl-pyrazole-3-carboxamide]
< 100 nM | Cc1n[nH]c(C)c1-c1ccc(NC(=O)[C@@H](NC(=O)c2ccnn2C(C)C)[C@H]2CCCC(F)(F)C2)cc1 [Example 23, N-[(1S)-1-[(1S)-3,3-difluorocyclohexyl]-2-[4-(3,5-dimethyl-1H-pyrazol-4-yl)anilino]-2-oxo-ethyl]-2-isopropyl-pyrazole-3-carboxamide]
100 to 1000 nM | Cc1n[nH]c(C)c1-c1ccc(NC(=O)[C@@H](NC(=O)c2ccnn2C2CC2)C2CCCCC2)cc1 [Example 27, N-[(1S)-1-cyclohexyl-2-[4-(3,5-dimethyl-1H-pyrazol-4-yl)anilino]-2-oxo-ethyl]-2-cyclopropyl-pyrazole-3-carboxamide]
100 to 1000 nM | Cc1n[nH]c(C)c1-c1ccc(NC(=O)[C@@H](NC(=O)c2ccnn2C(F)F)C2CCCCC2)cc1 [Example 28, N-[(1S)-1-cyclohexyl-2-[4-(3,5-dimethyl-1H-pyrazol-4-yl)anilino]-2-oxo-ethyl]-2-(difluoromethyl)pyrazole-3-carboxamide]
100 to 1000 nM | Cc1n[nH]c(C)c1-c1ccc(NC(=O)[C@@H](NC(=O)c2ccnn2CC(F)(F)F)C2CCCCC2)cc1 [Example 29]
100 to 1000 nM | Cc1n[nH]c(C)c1-c1ccc(NC(=O)C(NC(=O)c2ccnn2C)C(C2CC2)C2CC2)cc1 (stereo not drawn) [Example 30, N-[1-(dicyclopropylmethyl)-2-[4-(3,5-dimethyl-1 pyrazol-4-yl)anilino]-2-oxo-ethyl]-2-methyl-pyrazole-3-carboxamide]
< 100 nM | CCn1nccc1C(=O)N[C@H](C(=O)Nc1ccc(-c2c(C)n[nH]c2C)cc1)C(C1CCC1)C1CCC1 [Example 36]
< 100 nM | Cc1n[nH]c(C)c1-c1ccc(NC(=O)[C@@H](NC(=O)c2ccnn2C(C)C)C(C2CCC2)C2CCC2)cc1 [Example 39]
< 100 nM | Cc1n[nH]c(C)c1-c1ccc(NC(=O)[C@@H](NC(=O)c2ccnn2C(C)C)[C@H]2CCCC3(CC3)C2)cc1 [Example 41, N-[(1S)-2-[4-(3,5-dimethyl-1H-pyrazol-4-yl)anilino]-2-oxo-1-[(7S)-spiro[2.5]octan-7-yl]ethyl]-2-isopropyl-pyrazole-3-carboxamide]
> 1000 nM | Cc1n[nH]c(C)c1-c1ccc(NC(=O)[C@@H](NC(=O)c2ccnn2C)C(C)C)cc1 [Example 42, N-[(1S)-1-[[4-(3,5-dimethyl-1H-pyrazol-4-yl)phenyl]carbamoyl]-2-methyl-propyl]-2-methyl-pyrazole-3-carboxamide; 2,2,2-trifluoroacetic acid]
100 to 1000 nM | CC[C@H](C)[C@H](NC(=O)c1ccnn1C)C(=O)Nc1ccc(-c2c(C)n[nH]c2C)cc1 [Example 43, N-[(1S,2S)-1-[[4-(3,5-dimethyl-1H-pyrazol-4-yl)phenyl]carbamoyl]-2-methyl-butyl]-2-methyl-pyrazole-3-carboxamide]
100 to 1000 nM | Cc1n[nH]c(C)c1-c1ccc(NC(=O)[C@@H](NC(=O)c2ccnn2CCO)C2CCCCC2)cc1 [Example 46, N-[(1S)-1-cyclohexyl-2-[4-(3,5-dimethyl-1H-pyrazol-4-yl)anilino]-2-oxo-ethyl]-2-(2-hydroxyethyl)pyrazole-3-carboxamide]
> 1000 nM | Cc1n[nH]c(C)c1-c1ccc(NC(=O)[C@@H](NC(=O)c2cncn2C)C2CCCCC2)cc1 [Example 49, N-[(1S)-1-cyclohexyl-2-[4-(3,5-dimethyl-1H-pyrazol-4-yl)anilino]-2-oxo-ethyl]-3-methyl-imidazole-4-carboxamide]
